# Data taken from PubChem BioAssay AID1963837 (Molecular Pharmacology Branch, DTP, NCI, 2024).
# Test system: 843126-344-R-J1-PDC complex spheroid viability
# Assay: Anticancer human tumor 843126-344-R-J1-PDC patient-derived melanoma cell line growth inhibition [POLQ]
# Conditions: for IC50: curve of first compound; for viability, T/C: stronger effect = lower value
# Method in brief: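 PDC + HUVEC + MSC complex spheroids; POLQ inhibitors ± partner drugs; top conc. at/near clinical Cmax, else 10 microM (SN-38 1 microM), half-log dilutions; 37 degrees C, 5% CO2.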
# 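Throughout, for viability, T/C: spheroids exposed to drugs for seven days before readout.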
smiles,measurement,setting,value
C=CC(=O)N1CCN(c2nc(=O)n(-c3c(C)ccnc3C(C)C)c3nc(-c4c(O)cccc4F)c(F)cc23)C(C)C1 (configuration not stated) + COC1C(OC(N)=O)C(O)C(Oc2ccc3c(O)c(NC(=O)c4ccc(O)c(CC=C(C)C)c4)c(=O)oc3c2C)OC1(C)C,IC50,second compound 0.0316 µM,> 10 µM
same,IC50,second compound 0.1 µM,> 10 µM
same,IC50,second compound 0.316 µM,> 10 µM
same,IC50,second compound 1 µM,> 10 µM
same,IC50,second compound 3.16 µM,> 10 µM
same,IC50,second compound 10 µM,> 10 µM
same,"viability, T/C","second compound 0.0316 µM, first compound 0.0316 µM",98.3%
same,"viability, T/C","second compound 0.0316 µM, first compound 0.1 µM",100%
same,"viability, T/C","second compound 0.0316 µM, first compound 0.316 µM",97.4%
same,"viability, T/C","second compound 0.0316 µM, first compound 1 µM",89%
same,"viability, T/C","second compound 0.0316 µM, first compound 3.16 µM",94.9%
same,"viability, T/C","second compound 0.0316 µM, first compound 10 µM",71.4%
same,"viability, T/C","second compound 0.1 µM, first compound 0.0316 µM",110%
same,"viability, T/C","second compound 0.1 µM, first compound 0.1 µM",108%
same,"viability, T/C","second compound 0.1 µM, first compound 0.316 µM",101%
same,"viability, T/C","second compound 0.1 µM, first compound 1 µM",113%
same,"viability, T/C","second compound 0.1 µM, first compound 3.16 µM",92.8%
same,"viability, T/C","second compound 0.1 µM, first compound 10 µM",80.5%
same,"viability, T/C","second compound 0.316 µM, first compound 0.0316 µM",88.7%
same,"viability, T/C","second compound 0.316 µM, first compound 0.1 µM",111%
same,"viability, T/C","second compound 0.316 µM, first compound 0.316 µM",103%
same,"viability, T/C","second compound 0.316 µM, first compound 1 µM",85%
same,"viability, T/C","second compound 0.316 µM, first compound 3.16 µM",101%
same,"viability, T/C","second compound 0.316 µM, first compound 10 µM",78.6%
same,"viability, T/C","second compound 1 µM, first compound 0.0316 µM",99.8%
same,"viability, T/C","second compound 1 µM, first compound 0.1 µM",95%
same,"viability, T/C","second compound 1 µM, first compound 0.316 µM",104%
same,"viability, T/C","second compound 1 µM, first compound 1 µM",108%
same,"viability, T/C","second compound 1 µM, first compound 3.16 µM",114%
same,"viability, T/C","second compound 1 µM, first compound 10 µM",68%
same,"viability, T/C","second compound 3.16 µM, first compound 0.0316 µM",107%
same,"viability, T/C","second compound 3.16 µM, first compound 0.1 µM",74.1%
same,"viability, T/C","second compound 3.16 µM, first compound 0.316 µM",105%
same,"viability, T/C","second compound 3.16 µM, first compound 1 µM",113%
same,"viability, T/C","second compound 3.16 µM, first compound 3.16 µM",97.7%
same,"viability, T/C","second compound 3.16 µM, first compound 10 µM",77.7%
same,"viability, T/C","second compound 10 µM, first compound 0.0316 µM",82.7%
same,"viability, T/C","second compound 10 µM, first compound 0.1 µM",107%
same,"viability, T/C","second compound 10 µM, first compound 0.316 µM",92.9%
same,"viability, T/C","second compound 10 µM, first compound 1 µM",98.3%
same,"viability, T/C","second compound 10 µM, first compound 3.16 µM",104%
same,"viability, T/C","second compound 10 µM, first compound 10 µM",83.5%
